Reference: patent US8962600B2, “Neuroprotective compounds and their use” (The Medical College of Wisconsin, Inc., priority 2009, dated 2015)

Legend:
[1] = tested on: MPTP mouse model of Parkinson's Disease; test: HPLC analysis of striatal dopamine and its metabolites, MPTP mouse model (Example 3); format: in vivo, C57BL/6 mice; details: MPTP- and diapocynin-treated mice, diapocynin 300 mg/kg oral gavage, MPTP 25 mg/kg i.p.
Description: Six- to 8-week-old C57BL/6 mice weighing 24 to 28 g were housed in standard conditions of constant temperature (22±1° C.), humidity (relative, 30%), and a 12-h light/dark cycle. Mice were allowed free access to food and water. Use of the animals and protocol procedures were approved and supervised by the Committee on Animal Care at Iowa State University (Ames, Iowa). For neurodegeneration studies, mice either received diapocynin (300 mg/kg dose) by oral gavage for 1 day (pre-treatment before MPTP administration), 5 days (co-treatment with MPTP), or 7 days (post-treatment after MPTP).
For checking inflammatory and oxidative stress markers, mice were gavaged diapocynin (300 mg/kg dose) 1 day before MPTP treatment (pre-treatment) and continued for another 4 days of co-treatment with MPTP. In the sub-acute MPTP regimen, MPTP (25 mg/kg) was injected intraperitoneally once per day from day 2 to day 7. Control mice received saline at the same dosage.
Striatal dopamine (DA), DOPAC and HVA levels were quantified by high-performance liquid chromatography (HPLC) with electrochemical detection. Samples were prepared and quantified as described previously (48, 56). In brief, 7 days after MPTP injection mice were sacrificed, striata were collected and stored at −80° C. On the day of analysis, neurotransmitters from striatal tissues were extracted using an antioxidant extraction solution (0.1 M perchloric acid containing 0.05% Na2EDTA and 0.1% Na2S2O5) and isoproterenol (as an internal standard). The extracts were filtered in 0.22 μm spin tubes, and 20 μl of the samples were loaded for analysis. DA, DOPAC and HVA were separated isocratically on a reversed-phase column with a flow rate of 0.6 ml/min. An HPLC system with an automatic sampler equipped with refrigerated temperature control (model 542; ESA, Inc., Bedford, Mass.) was used for HPLC analysis. The electrochemical detection system consisted of a Coulochem (model 5100A, ESA, Inc.) with a microanalysis cell (model 5014A, ESA, Inc.) and a guard cell (model 5020, ESA, Inc.). […]

IL-12 = test: LPS-induced IL-12 release in primary microglia, LUMINEX immunoassay; format: cell-based, mouse; details: diapocynin 10 μM, LPS 24 hr
Description: Primary microglia were obtained from 1-2 day old C57/b16 mouse pups. Upon collection, whole brains were kept in ice-cold DMEM-F12 medium containing 10% FBS, 1× sodium pyruvate, 1× NEAAs, 100 units pen/strep, and Q. After collection, the brains were placed in 0.25% trypsin-EDTA and incubated at 37° C., with gentle shaking every 5-10 min. After 30 min, the trypsin was removed, and the brains are washed in warmed medium twice. After washing, medium was added to the brains, and the brains were homogenized using gentle pipetting, starting with a 25 ml pipette and moving to smaller pipette tips as the brains were broken up. When the brains were sufficiently homogenized to a single-cell suspension, they were filtered with a 70 μm nylon filter, which allowed microglia and astrocytes to be collected. The resultant cell suspension was plated in T-75 flasks and allowed to grow for 12-14 days at 37° C., 5% CO2. […]
Cytokine levels of BV2 and microglial cells treated with diapocynin were determined by LUMINEX® multiplex immunoassay. […]
Cytokine standards and controls were adjusted to 40 μl volume and the LUMINEX® Samples were run on a LUMINEX® 200 Total System and analyzed with Multiplex Analysis—LUMINEX® Software (Invitrogen, Carlsbad, Calif.).

mouse primary microglia = test: LPS-induced iNOS activation (nitrite, Griess reagent) in primary microglia; format: cell-based; details: diapocynin 10 μM, 30 min pretreatment, LPS 24 hr
Description: Primary microglia were obtained from 1-2 day old C57/b16 mouse pups. Upon collection, whole brains were kept in ice-cold DMEM-F12 medium containing 10% FBS, 1× sodium pyruvate, 1× NEAAs, 100 units pen/strep, and Q. After collection, the brains were placed in 0.25% trypsin-EDTA and incubated at 37° C., with gentle shaking every 5-10 min. After 30 min, the trypsin was removed, and the brains are washed in warmed medium twice. After washing, medium was added to the brains, and the brains were homogenized using gentle pipetting, starting with a 25 ml pipette and moving to smaller pipette tips as the brains were broken up. When the brains were sufficiently homogenized to a single-cell suspension, they were filtered with a 70 μm nylon filter, which allowed microglia and astrocytes to be collected. The resultant cell suspension was plated in T-75 flasks and allowed to grow for 12-14 days at 37° C., 5% CO2. Microglia were collected using an Easy Sep Magnet (Stemcell Technologies, Vancouver, BC, Canada) (68-69) and plated on poly-D-lysine-coated plates and allowed to attach for 2-4 days before treatment.
Inducible nitric oxide synthase (iNOS or NOS2) activation was assessed by measuring nitrite levels using Griess reagent in a 96-well format (70-72). […] The plate was shaken on a plate shaker for 10 min before being read in a plate reader at 540 nm.

SMILES: COc1cc(C(C)=O)cc(-c2cc(C(C)=O)cc(OC)c2O)c1O [diapocynin]
- striatal DOPAC levels [1]: significant preservation
- striatal HVA levels [1]: significant preservation
- decrease of dopamine levels in striatum ([1]; 7 days after MPTP): less than 40%
- blocking LPS-induced release of IL-12 (IL-12): very effective
- attenuating LPS-induced iNOS activation, compared with apocynin 100 μM (mouse primary microglia): just as effective
